Measured values from patent US8580995B2, “Lysine-based prodrugs of aspartyl protease inhibitors and processes for their preparation” (priority 2005, dated 2013).

Assay: Bioavailability: plasma concentration after single oral administration to rats
Type: in vivo, male Sprague-Dawley rats
Details: for AUC: 50 mg/Kg po, 3 rats; for Detection of the administered phosphate compound itself in the blood samples / Delivery of parent drug (PL-100, PL-337) by aqueous dosing compared to non-aqueous formulations of PL-100 and PL-337: 50 mg/kg po; for Detection of the administered phosphate compound itself in the blood samples: delivered as aqueous solutions, HPLC-MS of plasma; for Delivery of parent drug (PL-100, PL-337) by aqueous dosing compared to non-aqueous formulations of PL-100 and PL-337: rats
Procedure: To assess the extent of in vivo cleavage of the phosphate group from the putative compounds, PL-100, PL-462 (based on PL-100), PL-337 and PL-515 (based on PL-337) compounds were administered per os (po) (50 mg/kg) to male Sprague-Dawley rats and their plasma concentration measured at different time intervals post-administration. All test articles (PL-100, PL-462, PL-337 and PL-515) were prepared in different vehicle at the final concentration of 25 mg/mL. The vehicle composition is as follows: (1) 20% ethanol; 50% propylene glycol; 0.05% w/v Tween 20 and water (Mix); (2) PBS buffer (PBS). Test articles were administered to male Sprague-Dawley rats at a single oral dose of 50 mg/kg. Each article was tested in three rats. Blood samples (0.2-0.3 mL) were collected at the post-dose time of 10, 20, 40, 60, 120, 180 and 360 minutes. The harvested blood was centrifuged to isolate plasma. The resulting plasma was separated and stored at −70° C. Plasma samples together with standards and quality control samples were treated to precipitate proteins, then analyzed by HPLC-MS, for the presence of PL-462, PL-100, PL-515 and PL-337.

[1] = vehicle Mix (20% ethanol; 50% propylene glycol; 0.05% w/v Tween 20 and water)
[2] = vehicle PBS, parent drug (PL-100 or PL-337) detected in plasma after dosing the phosphate compound

AUC [1] [μg/hr*ml] | Structure (SMILES) | AUC [2] [μg/hr*ml] | Detection of the administered phosphate compound itself in the blood samples | Delivery of parent drug (PL-100, PL-337) by aqueous dosing compared to non-aqueous formulations of PL-100 and PL-337
0.675 ± 0.171 | COC(=O)N[C@H](C(=O)NCCCC[C@@H](CO)N(CC(C)C)S(=O)(=O)c1ccc(N)cc1)C(c1ccccc1)c1ccccc1 [PL-100, (1S,5S)-(1-{5-[(4-amino-benzenesulfonyl)-isobutyl-amino]-6-hydroxy-hexylcarbamoyl}-2,2-diphenyl-ethyl)-carbamic acid methyl ester] | – | – | –
1.180 ± 0.196 | COC(=O)N[C@H](C(=O)NCCCC[C@@H](CO)N(CC(C)C)S(=O)(=O)c1ccc(N)c(F)c1)C(c1ccccc1)c1ccccc1 [PL-337, (1-{5-[(4-amino-3-fluoro-benzenesulfonyl)-isobutyl-amino]-6-hydroxy-hexylcarbamoyl}-2,2-diphenyl-ethyl)-carbamic acid methyl ester] | – | – | –
– | COC(=O)N[C@H](C(=O)NCCCC[C@@H](COP(=O)([O-])[O-])N(CC(C)C)S(=O)(=O)c1ccc(N)cc1)C(c1ccccc1)c1ccccc1.[Na+].[Na+] [PL-462, (1S,5S)-(1-{5-[(4-amino-benzenesulfonyl)-isobutyl-amino]-6-phosphonooxy-hexylcarbamoyl}-2,2-diphenyl-ethyl)-carbamic acid methyl ester sodium salt] | 0.816 ± 0.295 | None of the PL-462 and PL-515 compounds, delivered as aqueous solutions, are detected in the blood samples | equivalent to slightly superior delivery
– | COC(=O)N[C@H](C(=O)NCCCC[C@@H](COP(=O)(O)O)N(CC(C)C)S(=O)(=O)c1ccc(N)c(F)c1)C(c1ccccc1)c1ccccc1 [PL-515, (1S,5S)-(1-{5-[(4-amino-3-fluoro-benzenesulfonyl)-isobutyl-amino]-6-phosphonooxy-hexylcarbamoyl}-2,2-diphenyl-ethyl)-carbamic acid methyl ester] | 1.075 ± 0.625 | None of the PL-462 and PL-515 compounds, delivered as aqueous solutions, are detected in the blood samples | equivalent to slightly superior delivery
